PubChem BioAssay (NCI)
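Five concentrations, 48 hours, 96-well plates. TGI is the concentration that stops growth completely.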

Columns and labels:
Assay in all cases: DTP human tumour cell line panel, 48 h
DU-145 prostate = tested on: DU-145 prostate
UACC-62 melanoma = tested on: UACC-62 melanoma
HCT-116 colon = tested on: HCT-116 colon
UO-31 renal = tested on: UO-31 renal
RXF 393 renal = tested on: RXF 393 renal
PC-3 prostate = tested on: PC-3 prostate
HT29 colon = tested on: HT29 colon
MALME-3M melanoma = tested on: MALME-3M melanoma
OVCAR-4 ovarian = tested on: OVCAR-4 ovarian
SK-MEL-2 melanoma = tested on: SK-MEL-2 melanoma
HL-60(TB) leukemia = tested on: HL-60(TB) leukemia
CCRF-CEM leukemia = tested on: CCRF-CEM leukemia
SK-OV-3 ovarian = tested on: SK-OV-3 ovarian
SK-MEL-5 melanoma = tested on: SK-MEL-5 melanoma
HCT-15 colon = tested on: HCT-15 colon
ACHN renal = tested on: ACHN renal
HOP-62 NSCLC = tested on: HOP-62 NSCLC
MCF7 breast = tested on: MCF7 breast
COLO 205 colon = tested on: COLO 205 colon
NCI-H23 lung = tested on: NCI-H23 lung
OVCAR-8 ovarian = tested on: OVCAR-8 ovarian
SF-295 CNS = tested on: SF-295 CNS
A498 renal = tested on: A498 renal
NCI-H460 lung = tested on: NCI-H460 lung
IGROV1 ovarian = tested on: IGROV1 ovarian
UACC-257 melanoma = tested on: UACC-257 melanoma
NCI-H226 lung = tested on: NCI-H226 lung
SW-620 colon = tested on: SW-620 colon
SNB-75 CNS = tested on: SNB-75 CNS
MDA-N = tested on: MDA-N
RPMI-8226 leukemia = tested on: RPMI-8226 leukemia
SNB-19 CNS = tested on: SNB-19 CNS
NCI-H522 lung = tested on: NCI-H522 lung
K-562 leukemia = tested on: K-562 leukemia
NCI/ADR-RES ovarian = tested on: NCI/ADR-RES ovarian
BT-549 breast = tested on: BT-549 breast
U251 CNS = tested on: U251 CNS
SN12C renal = tested on: SN12C renal
MDA-MB-435 = tested on: MDA-MB-435
MDA-MB-231 breast = tested on: MDA-MB-231 breast
786-0 renal = tested on: 786-0 renal
SK-MEL-28 melanoma = tested on: SK-MEL-28 melanoma
OVCAR-3 ovarian = tested on: OVCAR-3 ovarian
LOX IMVI melanoma = tested on: LOX IMVI melanoma
TK-10 renal = tested on: TK-10 renal
OVCAR-5 ovarian = tested on: OVCAR-5 ovarian
KM12 colon = tested on: KM12 colon
HS 578T breast = tested on: HS 578T breast
SF-268 CNS = tested on: SF-268 CNS
M14 melanoma = tested on: M14 melanoma
SF-539 CNS = tested on: SF-539 CNS
EKVX NSCLC = tested on: EKVX NSCLC
MOLT-4 leukemia = tested on: MOLT-4 leukemia
A549 NSCLC = tested on: A549 NSCLC
SR leukemia = tested on: SR leukemia
HOP-92 NSCLC = tested on: HOP-92 NSCLC
CAKI-1 renal = tested on: CAKI-1 renal
T-47D breast = tested on: T-47D breast

With `COc1cc(/C=C2\CCC/C(=C\c3ccc(OC(=O)CCCCC4CCSS4)c(OC)c3)C2=O)ccc1OC(=O)CCCCC1CCSS1` (stereo not given) the TGI (DU-145 prostate) was > 100 µM, the TGI (UACC-62 melanoma) was > 100 µM and the TGI (HCT-116 colon) was > 100 µM. For the same molecule, the TGI (UO-31 renal) was > 100 µM, the TGI (RXF 393 renal) was > 100 µM and the TGI (PC-3 prostate) was > 100 µM. For the same molecule, the TGI (HT29 colon) was > 100 µM, the TGI (MALME-3M melanoma) was > 100 µM and the TGI (OVCAR-4 ovarian) was > 100 µM. The TGI (SK-MEL-2 melanoma) was > 100 µM, the TGI (HL-60(TB) leukemia) was > 100 µM and the TGI (CCRF-CEM leukemia) was > 100 µM. For the same molecule, the TGI (SK-OV-3 ovarian) was > 100 µM, the TGI (SK-MEL-5 melanoma) was > 100 µM and the TGI (HCT-15 colon) was > 100 µM. For the same molecule, the TGI (ACHN renal) was > 100 µM, the TGI (HOP-62 NSCLC) was > 100 µM and the TGI (MCF7 breast) was > 100 µM. The TGI (COLO 205 colon) was > 100 µM, the TGI (NCI-H23 lung) was > 100 µM and the TGI (OVCAR-8 ovarian) was > 100 µM. The TGI (SF-295 CNS) was > 100 µM, the TGI (A498 renal) was > 100 µM and the TGI (NCI-H460 lung) was > 100 µM. For the same molecule, the TGI (IGROV1 ovarian) was > 100 µM, the TGI (UACC-257 melanoma) was > 100 µM and the TGI (NCI-H226 lung) was > 100 µM. For the same molecule, the TGI (SW-620 colon) was > 100 µM, the TGI (SNB-75 CNS) was > 100 µM and the TGI (MDA-N) was > 100 µM. The TGI (RPMI-8226 leukemia) was > 100 µM, the TGI (SNB-19 CNS) was > 100 µM and the TGI (NCI-H522 lung) was > 100 µM. The TGI (K-562 leukemia) was > 100 µM, the TGI (NCI/ADR-RES ovarian) was > 100 µM and the TGI (BT-549 breast) was > 100 µM. The TGI (U251 CNS) was > 100 µM, the TGI (SN12C renal) was > 100 µM and the TGI (MDA-MB-435) was > 100 µM. The TGI (MDA-MB-231 breast) was > 100 µM, the TGI (786-0 renal) was > 100 µM and the TGI (SK-MEL-28 melanoma) was > 100 µM. For the same molecule, the TGI (OVCAR-3 ovarian) was > 100 µM, the TGI (LOX IMVI melanoma) was > 100 µM and the TGI (TK-10 renal) was > 100 µM. The TGI (OVCAR-5 ovarian) was > 100 µM, the TGI (KM12 colon) was > 100 µM and the TGI (HS 578T breast) was > 100 µM. The TGI (SF-268 CNS) was > 100 µM, the TGI (M14 melanoma) was > 100 µM and the TGI (SF-539 CNS) was > 100 µM. The TGI (EKVX NSCLC) was > 100 µM, the TGI (MOLT-4 leukemia) was > 100 µM and the TGI (A549 NSCLC) was > 100 µM.

With `O=C(O)c1cccc(SSc2cccc(C(=O)O)c2)c1` the TGI (DU-145 prostate) was > 100 µM, the TGI (UACC-62 melanoma) was > 100 µM and the TGI (SR leukemia) was > 100 µM. For the same molecule, the TGI (HCT-116 colon) was > 100 µM, the TGI (UO-31 renal) was > 100 µM and the TGI (RXF 393 renal) was > 100 µM. For the same molecule, the TGI (PC-3 prostate) was > 100 µM, the TGI (HT29 colon) was > 100 µM and the TGI (MALME-3M melanoma) was > 100 µM. The TGI (HOP-92 NSCLC) was > 100 µM, the TGI (OVCAR-4 ovarian) was > 100 µM and the TGI (SK-MEL-2 melanoma) was > 100 µM. The TGI (HL-60(TB) leukemia) was > 100 µM, the TGI (CCRF-CEM leukemia) was 81 µM and the TGI (SK-OV-3 ovarian) was > 100 µM. For the same molecule, the TGI (SK-MEL-5 melanoma) was > 100 µM, the TGI (CAKI-1 renal) was > 100 µM and the TGI (HCT-15 colon) was > 100 µM. The TGI (ACHN renal) was > 100 µM, the TGI (HOP-62 NSCLC) was > 100 µM and the TGI (COLO 205 colon) was > 100 µM. For the same molecule, the TGI (NCI-H23 lung) was > 100 µM, the TGI (OVCAR-8 ovarian) was > 100 µM and the TGI (SF-295 CNS) was > 100 µM. For the same molecule, the TGI (A498 renal) was > 100 µM, the TGI (NCI-H460 lung) was > 100 µM and the TGI (IGROV1 ovarian) was > 100 µM. The TGI (UACC-257 melanoma) was > 100 µM, the TGI (NCI-H226 lung) was > 100 µM and the TGI (SW-620 colon) was > 100 µM. The TGI (SNB-75 CNS) was > 100 µM, the TGI (MDA-N) was > 100 µM and the TGI (RPMI-8226 leukemia) was > 100 µM. The TGI (SNB-19 CNS) was > 100 µM, the TGI (NCI-H522 lung) was > 100 µM and the TGI (K-562 leukemia) was > 100 µM. For the same molecule, the TGI (NCI/ADR-RES ovarian) was > 100 µM, the TGI (BT-549 breast) was > 100 µM and the TGI (U251 CNS) was > 100 µM. For the same molecule, the TGI (SN12C renal) was > 100 µM, the TGI (MDA-MB-435) was > 100 µM and the TGI (MDA-MB-231 breast) was > 100 µM. The TGI (786-0 renal) was > 100 µM, the TGI (SK-MEL-28 melanoma) was > 100 µM and the TGI (OVCAR-3 ovarian) was > 100 µM. For the same molecule, the TGI (LOX IMVI melanoma) was > 100 µM, the TGI (TK-10 renal) was > 100 µM and the TGI (OVCAR-5 ovarian) was > 100 µM. The TGI (KM12 colon) was > 100 µM, the TGI (T-47D breast) was > 100 µM and the TGI (SF-268 CNS) was > 100 µM. For the same molecule, the TGI (M14 melanoma) was > 100 µM, the TGI (SF-539 CNS) was > 100 µM and the TGI (EKVX NSCLC) was > 100 µM. For the same molecule, the TGI (MOLT-4 leukemia) was > 100 µM and the TGI (A549 NSCLC) was > 100 µM.
